# Data from patent publication US20250179061A1 (SIRONAX LTD., priority 2022, published 2025).
# pIC50: −log10 of the molar value.
# Tested on: HT-29 cells
# Assay: HT-29 necroptosis cell viability assay (TNF-α/SMAC mimetic/zVAD-FMK, CellTiter-Glo)
# Type: cell-based
# Details: Homo sapiens, HT-29, HT-29 cells, necroptosis induced by TNF-α/SMAC mimetic/zVAD-FMK, CellTiter-Glo; read-out: Activity (IC50 class)
# Protocol: Compounds 1-702 of the disclosure were tested for biological activity, following the experimental procedures described below.
# • Cell line: HT-29 (ATCC® HTB-38™) • Culture medium: McCOY's 5A, Gibco, Cat No. 16600-082 • FBS, Gibco, Cat No. 10099-141 C • Trypsin: Gibco, Cat No. 25200-056 • DMSO: Sigma, Cat No. 67-68-5, 1L • Assay plate: Corning #3903 • Compound dilution plate: Corning #3357 • Inducers: TNFα, GenScript, Cat No. Z01001-50, • SmacM, Cat. No., HY-15989, MedChemExpress (MCE) • Z_VAD FMK, TargetMol, T6013 • Cell Titer-Glo® Luminescent Cell Viability Assay Kit: Promega, Cat No. G7573 • EnVision: PerkinElmer, 2105-0010
# • 1. HT-29 cells were checked every day to make sure that they were healthy and growing as expected. They were subjected to sub-culturing when they were approximately 80% confluent. • 2. The culture medium, McCOY's 5A medium (Gibco, Cat No. 16600-082) with 10% fetal bovine serum or FBS (Gibco, Cat No. 10099-141C), was pre-warmed in a 37° C. water bath for at least 30 min. • 3. When the cells had reached a desired level of confluency of 80% in a T75 flask, the medium was aspirated, and the cells were washed with warm phosphate buffered saline or PBS two times. • 4. 2-3 ml fresh warm trypsin (Gibco, Cat No. 25200-056) solution was added to the washed cells. The flask with the cells was transferred to a 37° C. incubator. • 5. After 5 minutes, the side of the flask was tapped, and the flask was examined under a microscope for detachment of the cells to the flask. If necessary, the cells were kept in the incubator for an additional 5-10 minutes, with occasional tapping, until lifting was complete. • 6. The trypsin reaction was neutralized by transferring 6-9 ml cell culture medium to sterile 15 ml conical tubes, and by centrifuging the cell culture at 300×g for 7 minutes to pellet the cells (supernatant decanted). • 7. The cells were resuspended in fresh cell culture medium and the cell counting was performed using a hemocytometer. • 8. 100 μl of the resuspended cell culture medium containing ˜5,000 cells were transferred into each well of the sterile 96-well cell culture plate (Corning 3903) and cultured overnight at 37° C. with 5% CO2.
# • 1. All test compounds were dissolved in DMSO (Dimethyl sulfoxide) to create a 20 mM stock. • 2. 3 μl of 20 mM stock of each compound was mixed with 27 μl DMSO, and the compound solution was further diluted at a titration ratio of 1:3 (20 μl compound solution+40 μl DMSO) till the 10 points end. • 3. All culture medium was removed from assay plates filled with HT-29 cell cultures. The cells were then washed with 1 PBS, and resuspsended in fresh, FBS-free McCOY's 5A medium containing a cocktail of TNF-α (10 ng/ml), a SMAC mimetic compound (6 μM) and Z-VAD-fluoromethylketone or zVAD-FMK (10 μM) to stimulate the HT-29 cells to increase RIP1 kinase levels and necroptosis. • 4. 0.5 μL of the diluted compound solution was added to the corresponding 96-well assay plates. • 5. The assay plates were incubated for 20 hours at 37° C. with 5% CO2.
# • 1. The CellTiter-Glo® Luminescent Cell Viability Assay was employed to detect the ATP levels of viable HT-29 cells. • 2. The CellTiter-Glo® buffer and the lyophilized substrate were equilibrated to room temperature prior to use. • 3. The CellTiter-Glo® substrate was resuspended with CellTiter-Glo® buffer, then mixed by gently vortexing to obtain a homogeneous solution. • 4. 20 μl of the enzyme/substrate mixture was transferred by multi-channel pipetting into 96-well assay plates. • 5. The assay plates were placed on an orbital shaker and the contents were shaken for 3 minutes to induce cell lysis. • 6. The assay plates were incubated at room temperature for 10 minutes to stabilize the luminescent signal. • 7. The luminescence signals were read and recorded with EnVision. • 8. The geometric mean IC50 values were calculated from 10 points response dose with duplicates. […]
row,Compound,pIC50
1,"Cc1ncsc1OC1CCC(n2nc3n(c2=O)[C@H](c2ccccc2)CC3)CC1 (single isomer, unassigned) [Example 636]",6.00 to 7.00
2,"Cc1nc(C(N)=O)sc1Oc1ncc(-n2nc3n(c2=O)[C@H](c2ccccc2)CC3)cc1F (single isomer, unassigned) [Example 638]",> 7.00
3,"Cc1nc(C(N)=O)sc1Oc1ncc(-n2nc3n(c2=O)[C@@H](c2ccccc2)CC3)cc1F (single isomer, unassigned) [Example 639]",6.00 to 7.00
4,"Cc1nc(C(N)=O)sc1Oc1ncc(-n2nc3n(c2=O)[C@H](c2ccccc2)CC3)cc1Cl (single isomer, unassigned) [Example 640]",> 7.00
5,"Cc1nc(C(N)=O)sc1Oc1ncc(-n2nc3n(c2=O)[C@@H](c2ccccc2)CC3)cc1Cl (single isomer, unassigned) [Example 641]",5.00 to 6.00
6,"Cc1nc(C(N)=O)sc1Oc1ccc(-n2nc3n(c2=O)[C@H](c2ccc(F)cc2)CC3)cc1F (single isomer, unassigned) [Example 668]",> 7.00
7,"Cc1nc(C(N)=O)sc1Oc1ccc(-n2nc3n(c2=O)[C@@H](c2ccc(F)cc2)CC3)cc1F (single isomer, unassigned) [Example 669]",5.00 to 6.00
8,"NC(=O)c1ncc(Oc2ccc(-n3nc4n(c3=O)[C@H](c3ccccc3)CC4)cc2F)s1 (single isomer, unassigned) [Example 670]",> 7.00

# Same assay, conditions: Homo sapiens, HT-29, HT-29 necroptosis cell viability assay; class symbols for IC50; read-out: Activity
row,Compound,pIC50
1,"Cc1nc(C(C)O)sc1Oc1ccc(-n2nc3n(c2=O)[C@H](c2ccccc2)CC3)cc1F (single isomer, unassigned) [Example 149]",> 7.00
2,"Cc1nc([C@@H](C)O)sc1Oc1ccc(-n2nc3n(c2=O)[C@H](c2ccccc2)CC3)cc1F (single isomer, unassigned) [Example 150]",> 7.00
3,"Cc1nc([C@H](C)O)sc1Oc1ccc(-n2nc3n(c2=O)[C@H](c2ccccc2)CC3)cc1F (single isomer, unassigned) [Example 151]",> 7.00
4,"Cc1nc(C(=O)N2CCOCC2)sc1Oc1ccc(-n2nc3n(c2=O)[C@H](c2ccccc2)CC3)cc1F (single isomer, unassigned) [Example 601]",> 7.00
5,"Cc1nc(C(=O)NC2CCOCC2)sc1Oc1ccc(-n2nc3n(c2=O)[C@H](c2ccccc2)CC3)cc1F (single isomer, unassigned) [Example 602]",> 7.00

# Same assay, conditions: Homo sapiens, HT-29, HT-29 necroptosis cell viability, IC50 class symbols; read-out: Activity
row,Compound,pIC50
1,"Cc1nc(C(C)O)sc1Oc1ccc(-n2ncn(Cc3c(F)cccc3F)c2=O)cc1 (racemic) [Example 459, 4-(2,6-difluorobenzyl)-2-(4-((2-(1-hydroxyethyl)-4-methylthiazol-5-yl)oxy)phenyl)-2,4-dihydro-3H-1,2,4-triazol-3-one]",> 7.00
2,"C[C@H]1[C@@H](O)CN1c1cc(Oc2ccc(-n3nc4n(c3=O)[C@H](c3ccccc3)CC4)cc2F)c(F)cn1 (single isomer, unassigned) [Example 258]",> 7.00
3,"Cc1nc([C@H](C)O)sc1Oc1ccc(-n2ncn(Cc3c(F)cccc3F)c2=O)cc1F (single isomer, unassigned) [Example 460]",> 7.00
4,"Cc1nc([C@@H](C)O)sc1Oc1ccc(-n2ncn(Cc3c(F)cccc3F)c2=O)cc1F (single isomer, unassigned) [Example 461]",> 7.00

# Same assay, conditions: Homo sapiens; HT-29 cells stimulated with TNF-α (10 ng/ml), SMAC mimetic (6 μM) and zVAD-FMK (10 μM); 20 hours; CellTiter-Glo ATP luminescence; geometric mean IC50 from 10 points; read-out: Activity
row,Compound,pIC50
1,"Cc1ncsc1Oc1ccc(-n2nc3n(c2=O)[C@H](c2ccccc2)CC3)cc1F (single isomer, unassigned) [Example 3]",> 7.00
2,"Cc1ncsc1Oc1ccc(-n2nc3n(c2=O)[C@@H](c2ccccc2)CC3)cc1F (single isomer, unassigned) [Example 4]",> 7.00
3,"Cc1nc(C(N)=O)sc1Oc1ccc(-n2nc3n(c2=O)[C@H](c2ccccc2)CC3)cc1F (single isomer, unassigned) [Example 14]",> 7.00
4,"Cc1nc(C(N)=O)sc1Oc1ccc(-n2nc3n(c2=O)[C@@H](c2ccccc2)CC3)cc1F (single isomer, unassigned) [Example 15]",6.00 to 7.00
5,"Cc1nc(C(N)=O)sc1Oc1ccc(-n2nc3n(c2=O)[C@H](c2ccccc2)CC3)cc1Cl (single isomer, unassigned) [Example 16]",> 7.00
6,"Cc1nc(C(N)=O)sc1Oc1ccc(-n2nc3n(c2=O)[C@H](c2ccccc2)CC3)cc1 (single isomer, unassigned) [Example 17]",> 7.00
7,"Cc1nc(C(=O)NC2CCOC2)sc1Oc1ccc(-n2nc3n(c2=O)[C@H](c2ccccc2)CC3)cc1F (single isomer, unassigned) [Example 18]",> 7.00
8,"Cn1nc(C(N)=O)cc1Oc1ccc(-n2nc3n(c2=O)[C@H](c2ccccc2)CC3)cc1F (single isomer, unassigned) [Example 30]",> 7.00
9,"COC(=O)c1nc(C)c(Oc2ccc(-n3nc4n(c3=O)[C@@H](c3ccccc3)CC4)cc2F)s1 (single isomer, unassigned) [Example 35]",5.00 to 6.00
10,"COC(=O)c1nc(C)c(Oc2ccc(-n3nc4n(c3=O)[C@H](c3ccccc3)CC4)cc2F)s1 (single isomer, unassigned) [Example 36]",> 7.00
11,"Cn1cc(C(N)=O)nc1Oc1ccc(-n2nc3n(c2=O)[C@H](c2ccccc2)CC3)cc1F (single isomer, unassigned) [Example 685]",6.00 to 7.00
12,"CCc1c(Oc2ccc(-n3nc4n(c3=O)[C@H](c3ccccc3)CC4)cc2F)nsc1C(N)=O (single isomer, unassigned) [Example 686]",> 7.00
13,"NC(=O)c1nnc(Oc2ccc(-n3nc4n(c3=O)[C@H](c3ccccc3)CC4)cc2F)s1 (single isomer, unassigned) [Example 687]",> 7.00
14,"NC(=O)c1coc(Oc2ccc(-n3nc4n(c3=O)[C@H](c3ccccc3)CC4)cc2F)n1 (single isomer, unassigned) [Example 688]",6.00 to 7.00
15,"Cc1cc(C(N)=O)sc1Oc1ccc(-n2nc3n(c2=O)[C@H](c2ccccc2)CC3)cc1F (single isomer, unassigned) [Example 689]",> 7.00
16,"Cc1c(Oc2ccc(-n3nc4n(c3=O)[C@H](c3ccccc3)CC4)cc2F)noc1C(N)=O (single isomer, unassigned) [Example 690]",> 7.00
17,"NC(=O)c1nnc(Oc2ccc(-n3nc4n(c3=O)[C@H](c3ccccc3)CC4)cc2F)o1 (single isomer, unassigned) [Example 691]",5.00 to 6.00
18,"Cn1nc(C(N)=O)nc1Oc1ccc(-n2nc3n(c2=O)[C@H](c2ccccc2)CC3)cc1F (single isomer, unassigned) [Example 692]",> 7.00
19,"Cc1nc(C(N)=O)n(C)c1Oc1ccc(-n2nc3n(c2=O)[C@H](c2ccccc2)CC3)cc1F (single isomer, unassigned) [Example 693]",> 7.00
20,"Cc1cc(C(N)=O)oc1Oc1ccc(-n2nc3n(c2=O)[C@H](c2ccccc2)CC3)cc1F (single isomer, unassigned) [Example 694]",> 7.00
21,"Cc1c(C(N)=O)noc1Oc1ccc(-n2nc3n(c2=O)[C@H](c2ccccc2)CC3)cc1F (single isomer, unassigned) [Example 695]",> 7.00
22,"Cc1oc(C(N)=O)nc1Oc1ccc(-n2nc3n(c2=O)[C@H](c2ccccc2)CC3)cc1F (single isomer, unassigned) [Example 696]",> 7.00
